Source: BindingDB's records for doi:10.1021/jm050559f (Wyeth Research, 2005)

Experiments:
[1] = target: T1, Vascular endothelial growth factor receptor 2 (Homo sapiens, UniProt P35968); experiment: Inhibition of poly(Glu4-Tyr)peptide phosphorylation by recombinant VEGFR2 at 10 uM ATP and in presence of 5% mouse plasma
[2] = target: T1, Vascular endothelial growth factor receptor 2; experiment: Inhibition of poly(Glu4-Tyr)peptide phosphorylation by recombinant VEGFR2 at 10 uM ATP and in presence of 100 uM glutathione
[3] = target: T1, Vascular endothelial growth factor receptor 2; experiment: Inhibition of poly(Glu4-Tyr)peptide phosphorylation by recombinant VEGFR2 at 10 uM ATP

Measured: IC50

T1 sequence (P35968 whole entry): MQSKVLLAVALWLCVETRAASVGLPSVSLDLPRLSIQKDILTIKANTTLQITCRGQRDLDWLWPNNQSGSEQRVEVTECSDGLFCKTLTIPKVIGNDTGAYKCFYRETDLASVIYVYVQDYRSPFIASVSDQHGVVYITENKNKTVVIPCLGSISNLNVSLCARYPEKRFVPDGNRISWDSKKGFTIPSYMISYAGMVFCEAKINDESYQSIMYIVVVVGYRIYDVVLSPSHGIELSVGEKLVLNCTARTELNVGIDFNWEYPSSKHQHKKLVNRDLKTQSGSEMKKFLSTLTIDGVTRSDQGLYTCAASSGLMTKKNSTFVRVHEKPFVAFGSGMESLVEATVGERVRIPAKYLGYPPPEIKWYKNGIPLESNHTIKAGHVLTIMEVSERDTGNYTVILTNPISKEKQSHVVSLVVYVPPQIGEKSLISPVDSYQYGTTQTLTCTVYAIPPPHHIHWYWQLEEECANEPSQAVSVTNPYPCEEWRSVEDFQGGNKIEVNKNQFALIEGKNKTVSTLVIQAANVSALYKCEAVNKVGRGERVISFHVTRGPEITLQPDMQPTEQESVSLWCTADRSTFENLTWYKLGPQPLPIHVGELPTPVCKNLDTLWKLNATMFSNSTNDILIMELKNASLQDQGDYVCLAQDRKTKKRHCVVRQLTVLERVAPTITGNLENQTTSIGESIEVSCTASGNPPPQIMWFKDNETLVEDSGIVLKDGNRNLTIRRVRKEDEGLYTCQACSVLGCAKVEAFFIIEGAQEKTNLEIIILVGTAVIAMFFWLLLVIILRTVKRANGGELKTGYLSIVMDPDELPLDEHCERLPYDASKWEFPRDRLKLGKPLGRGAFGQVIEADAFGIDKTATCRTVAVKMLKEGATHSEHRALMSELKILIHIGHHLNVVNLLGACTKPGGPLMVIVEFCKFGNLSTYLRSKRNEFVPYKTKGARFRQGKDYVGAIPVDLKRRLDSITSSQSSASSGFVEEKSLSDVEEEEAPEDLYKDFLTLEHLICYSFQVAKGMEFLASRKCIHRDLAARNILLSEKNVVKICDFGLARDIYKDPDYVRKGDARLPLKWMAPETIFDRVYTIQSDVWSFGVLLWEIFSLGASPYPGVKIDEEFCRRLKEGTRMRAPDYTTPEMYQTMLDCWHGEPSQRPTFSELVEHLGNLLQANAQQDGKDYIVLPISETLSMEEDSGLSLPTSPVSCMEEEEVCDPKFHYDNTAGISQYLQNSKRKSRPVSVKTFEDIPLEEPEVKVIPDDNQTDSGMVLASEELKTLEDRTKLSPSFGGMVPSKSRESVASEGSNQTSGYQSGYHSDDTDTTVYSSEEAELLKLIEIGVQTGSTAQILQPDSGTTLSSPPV

COCCOc1cc2ncnc(N=C3C(=O)C(OC)=CC(=O)C3Sc3ccccn3)c2cc1OC (stereo not drawn) [5-methoxy-3-{[6-methoxy-7-(2-methoxyethoxy)quinazolin-4-yl]amino}-2-(pyridin-2-ylthio)benzo-1,4-quinone]
> 1000 nM: all assays above
